Results published in patent US20220401448A1, “Pharmaceutical Compositions Comprising an Inhibitor of a Histon-deacetylase (HDACi) and an Agonist of Toll-like-receptor 7 and/or 8 (TLR7 and/or TLR8) and Their Use in the Treatment of Cancer” (priority 2019, published 2022).
≈ marks a conversion by molar mass, not a printed value. Like-named read-outs stand apart in the source and are kept apart here.

Columns and labels:
[1] = tested on: SKOV3 ovarian cancer cell line; test: MTT proliferation assay, single drugs, SKOV3; format: cell-based; details: Homo sapiens
[2] = tested on: OvCar3 ovarian cancer cell line; test: Individual effects (IC50), OvCar3; format: cell-based; details: Homo sapiens, OVCAR-3
[3] = tested on: OvCa2810 primary ovarian cancer cells; test: Individual effects (IC50), OvCa2810; format: cell-based; details: OvCa2810, single drug
[4] = tested on: OvCa236 primary ovarian cancer cells; test: Individual effects (IC50), OvCa236; format: cell-based; details: OvCa236, single drug
[5] = common vehicles; cited from earlier work
[6] = tested on: Peripheral Blood Mononuclear Cells (PBMC); test: Induction of apoptosis in PBMC from healthy volunteers; details: 24 h of drug exposure, 1×IC50 (SKOV3 values)
Description: The drug doses (1×IC50) employed for both compound classes were those obtained in SKOV3 cells.

[7] = tested on: SKOV3^WT ovarian carcinoma cell line; test: Screening of SKOV3^WT for HERV expression using qPCR; format: cell-based; details: for ΔCt HERV Henv: untreated 15.87 ± 0.56; for ΔCt HERV KISD: untreated 17.66 ± 0.23; for ΔCt HERV Kpol: untreated 18.16 ± 0.48; for ΔCt HERV Kenv: untreated 18.49 ± 0.45; for ΔCt HERV IDDMK1.2: untreated 18.68 ± 0.41; for ΔCt KERV Kseminoma: untreated 18.90 ± 0.41; for ΔCt HERV V3.1: untreated 19.32 ± 0.41; for ΔCt HERV Kgag: untreated 19.47 ± 0.58; for ΔCt HERV Fpol: untreated 19.69 ± 0.37; for ΔCt HERV KLTR: untreated 19.91 ± 0.60; for ΔCt HERV Eenv: untreated 20.10 ± 0.51; for ΔCt HERV Wprt: untreated 20.48 ± 0.72; for ΔCt HERV FRD1: untreated 21.71 ± 0.60; for ΔCt HERV Wenv: untreated 22.12 ± 0.53; for ΔCt HERV WE1: untreated 22.12 ± 0.62; for ΔCt HERV V1: untreated 22.95 ± 1.89; for ΔCt HERV V2: untreated 23.11 ± 2.07; for ΔCt HERV Penv: untreated 25.26 ± 0.48; for ΔCt HERV Pgag: untreated 25.33 ± 0.31; for ΔCt HERV HC2pol: untreated 25.99 ± 0.57; for ΔCt HERV Ppol: untreated 26.05 ± 0.31; for ΔCt HERV C: untreated 26.20 ± 0.36; for ΔCt HERV MER34.1: untreated 27.96 ± 0.43; for ΔCt HERV T: untreated 28.36 ± 0.87; for ΔCt HERV L: untreated 28.42 ± 1.52; for ΔCt HERV Fc1: untreated 29.68 ± 0.57; for ΔCt HERV Spol: untreated 32.00 ± 0.73
Description: In particular, the SKOV3^WT ovarian carcinoma cell line was screened for HERV expression using quantitative PCT (qPCR). […] Gene expression was considered enforced when more than 3 PCR-cycles of difference (Untreated−Treated) was calculated (n≥3).
18S ribosomal RNA serves as standard.

[8] = tested on: OvCa28 primary ovarian cancer cells; test: MTT proliferation assay, single drugs, OvCa28; format: cell-based; details: for resistance of primary ovarian cancer cells compared to SKOV3: OvCa28 IC50 vs SKOV3 IC50; for IC50: read-out: IC50 (cell growth)
Description: OvCa28 primary ovarian cancer cells were isolated from a pretreated patient (patient number 28). These primary ovarian cancer cells were treated individually with either the HDAC inhibitor Romidepsin or the TLR7 agonist Vesatolimod as shown in FIG. 4. Cell growth was determined by the MTT proliferation assay.

NFkB activity = NFkB activity by luciferase assay (NanoLuc reporter vector with NF-κB response element); format: cell-based
Description: In order to make conclusions about NFkB activation, the NFkB activity was analyzed by luciferase assay. The NanoLuc® Reporter Vector with NF-κB Response Element from Promega was used for this purpose.
The pNL3.2.NF-κB-RE[NlucP/NF-κB-RE/Hygro] Vector pNL3.2. (GenBank® Accession Number JQ513377) contains five copies of an NF-κB response element (NF-κB-RE) that drives transcription of a destabilized form of NanoLuc® luciferase, an engineered small (23.3 kDa) luciferase fusion protein. The NlucP reporter consists of NanoLuc® luciferase with a C-terminal fusion to PEST, a protein destabilization domain, which responds more quickly and with greater magnitude to changes in transcriptional activity than unmodified NanoLuc® luciferase. NanoLuc® (Nluc) luciferase is a small enzyme (19.1 kDa) engineered for optimal performance as a luminescent reporter. The luminescent reaction is ATP-independent and designed to suppress background luminescence for maximal assay sensitivity.
Without stimulation we detect about 6000 RLU. […] In summary, loss of NFkB was confirmed not only by Western Blot, but also in this functional test by loss of NFkB functionality using the reporter vector with NF-κB response element.

SKOV3^WT xenograft = details: i.p. Romidepsin 1 mg/kg, Vesatolimod 5 mg/kg, four times at 3 day intervals
Description: 1 mm^3 tumor pieces were implanted subcutaneosly into six to eight week old female NMRI nude mice by minimal operative intervention. […] Three days after mice were intraperitoneally treated at doses of 1 mg/kg and 5 mg/kg body weight four times at 3 day intervals for 12 consecutive days.

HERV-V1 and V2 = test: ChIP (anti-H3K9ac) with qPCR of HERV-V1 and V2; format: cell-based; details: SKOV3, OvCar3, OvCa236
Description: While the data concerning the transcriptional upregulation of HERV-V1/V2 upon HDAC inhibition were confirmed, it is unclear whether this is a direct effect of the drugs on epigenetic marks proximate to sites of HERV-V1/V2 integration. For this reason, ChIP-analyses of relevant histones were performed (ChIP=chromatin immunoprecipitation, was performed as described in Nakato R. et al. “Methods for ChIP-seq analysis: A practical workflow and advanced applications”, Methods 2020, doi.org/10.1016/j.ymeth.2020.03.005). Histone H3 along with H2A, H2B and H4 is involved in the structure of chromatin in eukaryotic cells. Histone H3 can undergo several different types of epigenetic modifications that influence cellular processes. These modifications include acetylation, phosphorylation, methylation, ubiquitination, and ADP-ribosylation and occur on the N-terminal tail domains of histone H3. […] In most species, histone H3 is primarily acetylated at lysine 9, 14, 18, and 27. […] We analyzed not only the ovarian cell lines SKOV3 and OVCar3, but also the primary cancer cell line OvCa236 derived from a patient. […] We therefore performed Immunoprecipitation using a anti-histone H3K9ac (Acetyl H3K9) polyclonal antibody and performed quantitative PCT (qPCR) as already described in Example 2.
HERV-V1 and V2, respectively, were analyzed separately. […]

SKOV3 cells = test: Dose-response of HERV transcription by qPCR, SKOV3; details: FIG. 9
Description: The term ΔCt reflects the difference (Δ) in cycle (C) thresholds (t). […] Measurement of specific RNA transcripts like HERV-V1/V2 by qPCR is usually performed in relation to the standard 18S, more or less transcription products are expressed in + or −ΔCt. Furthermore, differences in ΔCt between treated and untreated cells were shown as ΔΔCt.

[9] = SK-OV-3, SKOV3, single drug, read-out: IC50
[10] = OvCar3, single drug, read-out: IC50

CC(C)Cn1cnc2c(N)nc3ccccc3c21 [Imiquimod, imiquimod]
IC50 [1, 9]: 15 µM | IC50 [2, 10]: 23 µM | IC50 [3]: 500 µM | IC50 [4]: 500 µM | dissolution [5]: difficult to dissolve | rate of apoptosis [6]: about 3%

C/C=C1\NC(=O)[C@H]2CSSCC/C=C/[C@H](CC(=O)N[C@H](C(C)C)C(=O)N2)OC(=O)[C@H](C(C)C)NC1=O [Romidepsin, romidepsin]
ΔCt HERV Henv ([7]; 1x drug): 14.87 ± 0.30 | ΔCt HERV KISD ([7]; 1x drug): 17.10 ± 0.35 | ΔCt HERV Kpol ([7]; 1x drug): 18.19 ± 0.51 | ΔCt HERV Kenv ([7]; 1x drug): 18.48 ± 0.26 | ΔCt HERV IDDMK1.2 ([7]; 1x drug): 17.66 ± 0.27 | ΔCt KERV Kseminoma ([7]; 1x drug): 19.70 ± 0.76 | ΔCt HERV V3.1 ([7]; 1x drug): 18.63 ± 0.36 | ΔCt HERV Kgag ([7]; 1x drug): 18.57 ± 0.43 | ΔCt HERV Fpol ([7]; 1x drug): 19.67 ± 0.22 | ΔCt HERV KLTR ([7]; 1x drug): 21.02 ± 1.95 | ΔCt HERV Eenv ([7]; 1x drug): 19.99 ± 0.51 | ΔCt HERV Wprt ([7]; 1x drug): 20.97 ± 1.15 | ΔCt HERV FRD1 ([7]; 1x drug): 22.07 ± 0.64 | ΔCt HERV Wenv ([7]; 1x drug): 22.33 ± 0.33 | ΔCt HERV WE1 ([7]; 1x drug): 21.92 ± 1.02 | ΔCt HERV V1 ([7]; 1x drug): 15.30 ± 0.36 | ΔCt HERV V2 ([7]; 1x drug): 15.24 ± 0.25 | ΔCt HERV Penv ([7]; 1x drug): 25.46 ± 0.60 | ΔCt HERV Pgag ([7]; 1x drug): 26.02 ± 0.50 | ΔCt HERV HC2pol ([7]; 1x drug): 24.85 ± 0.35 | ΔCt HERV Ppol ([7]; 1x drug): 26.55 ± 0.39 | ΔCt HERV C ([7]; 1x drug): 26.79 ± 0.97 | ΔCt HERV MER34.1 ([7]; 1x drug): 25.78 ± 0.13 | ΔCt HERV T ([7]; 1x drug): 29.31 ± 0.84 | ΔCt HERV L ([7]; 1x drug): 27.62 ± 0.95 | ΔCt HERV Fc1 ([7]; 1x drug): 28.17 ± 3.80 | ΔCt HERV Spol ([7]; 1x drug): 31.04 ± 1.11 | ΔCt HERV P4.6 ([7]; 1x drug, untreated […]): 31.65 ± 1.16 | IC50 ([1]; SK-OV-3): 0.004 µM | IC50 ([1]; SK-OV-3, read-out: IC50 (cell growth)): 0.004 µg/mL | resistance of primary ovarian cancer cells compared to SKOV3 [8]: ~188 fold | IC50 [8]: 0.75 µg/mL (≈ 1.39 µM) | IC50 [2]: 0.007 µM | IC50 [3]: 0.006 µM | IC50 [4]: 0.003 µM | rate of apoptosis [6]: about 3%

CCCCOc1nc(N)c2c(n1)N(Cc1cccc(CN3CCCC3)c1)CC(=O)N2 [Vesatolimod, vesatolimod]
IC50 ([1]; SK-OV-3, SKOV3, single drug, MTT, read-out: IC50 (cell growth)): 12.5 µg/mL | IC50 [1, 9]: 39 µM | IC50 ([8]; OvCa28, single drug, MTT): 30 µg/mL (≈ 73.1 µM) | resistance of primary ovarian cancer cells compared to SKOV3 [8]: ~2 fold | IC50 [2, 10]: 32 µM | IC50 [3]: 40 µM | IC50 [4]: 32 µM | NFkB activity (reporter) (NFkB activity; in both cell lines, OvCar 3 and SKOV3, without stimulation about 6000 RLU): slightly reduced activity | total tumor volume (SKOV3^WT xenograft): did reduce the total tumor volume | dissolution [5]: better dissolution profile in common vehicles | rate of apoptosis [6]: about 8%

O=C(CCCCCCC(=O)Nc1ccccc1)NO [Vorinostat, vorinostat]
ΔCt HERV Henv ([7]; 1x drug): 15.51 ± 0.31 | ΔCt HERV KISD ([7]; 1x drug): 17.71 ± 0.19 | ΔCt HERV Kpol ([7]; 1x drug): 18.81 ± 0.30 | ΔCt HERV Kenv ([7]; 1x drug): 19.26 ± 1.00 | ΔCt HERV IDDMK1.2 ([7]; 1x drug): 18.29 ± 0.29 | ΔCt KERV Kseminoma ([7]; 1x drug): 20.25 ± 0.18 | ΔCt HERV V3.1 ([7]; 1x drug): 19.22 ± 0.33 | ΔCt HERV Kgag ([7]; 1x drug): 19.17 ± 0.41 | ΔCt HERV Fpol ([7]; 1x drug): 20.37 ± 0.49 | ΔCt HERV KLTR ([7]; 1x drug): 19.31 ± 0.42 | ΔCt HERV Eenv ([7]; 1x drug): 20.08 ± 0.25 | ΔCt HERV Wprt ([7]; 1x drug): 20.80 ± 0.34 | ΔCt HERV FRD1 ([7]; 1x drug): 22.51 ± 0.45 | ΔCt HERV Wenv ([7]; 1x drug): 22.03 ± 0.34 | ΔCt HERV WE1 ([7]; 1x drug): 22.18 ± 0.32 | ΔCt HERV V1 ([7]; 1x drug): 15.48 ± 0.78 | ΔCt HERV V2 ([7]; 1x drug): 15.46 ± 0.79 | ΔCt HERV Penv ([7]; 1x drug): 25.39 ± 0.49 | ΔCt HERV Pgag ([7]; 1x drug): 25.45 ± 0.11 | ΔCt HERV HC2pol ([7]; 1x drug): 25.52 ± 0.39 | ΔCt HERV Ppol ([7]; 1x drug): 26.34 ± 0.33 | ΔCt HERV C ([7]; 1x drug): 27.84 ± 0.59 | ΔCt HERV MER34.1 ([7]; 1x drug): 26.62 ± 0.62 | ΔCt HERV T ([7]; 1x drug): 28.24 ± 0.72 | ΔCt HERV L ([7]; 1x drug): 28.08 ± 0.90 | ΔCt HERV Fc1 ([7]; 1x drug): 30.36 ± 0.84 | ΔCt HERV Spol ([7]; 1x drug): 30.80 ± 0.75 | HERV-V2 expression levels ([7]; SKOV3, qPCR, FIG. 1B): increased | expression of HERV-V1 and V2 transcripts after H3K9ac immunoprecipitation (HERV-V1 and V2): enhanced | expression of HERV-V1 and V2 (SKOV3 cells): increased | rate of apoptosis [6]: about 6%

TNFα
response of NF-κB reporter vector (NFkB activity; positive control, inflammatory stimulation): 20.000 RLU
